The target in data set [1] is T1, OCTN2 (organic cation/carnitine transporter 2) (Homo sapiens, UniProt O76082).
T1 sequence (O76082 whole entry): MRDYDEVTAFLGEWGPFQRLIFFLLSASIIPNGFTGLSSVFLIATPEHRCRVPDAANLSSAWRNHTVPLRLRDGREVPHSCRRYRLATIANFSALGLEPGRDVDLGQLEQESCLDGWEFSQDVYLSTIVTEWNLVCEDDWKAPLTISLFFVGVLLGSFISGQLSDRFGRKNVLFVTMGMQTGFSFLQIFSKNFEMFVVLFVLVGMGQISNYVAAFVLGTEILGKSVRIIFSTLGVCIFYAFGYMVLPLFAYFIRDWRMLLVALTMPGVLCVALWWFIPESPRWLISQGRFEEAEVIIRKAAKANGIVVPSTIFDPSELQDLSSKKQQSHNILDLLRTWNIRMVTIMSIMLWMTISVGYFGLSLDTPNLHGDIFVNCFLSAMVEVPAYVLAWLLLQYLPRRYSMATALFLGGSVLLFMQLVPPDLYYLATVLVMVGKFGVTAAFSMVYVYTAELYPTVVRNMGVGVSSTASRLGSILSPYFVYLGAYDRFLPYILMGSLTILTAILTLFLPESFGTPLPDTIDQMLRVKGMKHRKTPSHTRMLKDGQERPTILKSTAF
The experiment in a line: TP_TRANSPORTER: inhibition of TEA uptake (TEA: 20 uM Procainamide: 5000 uM) in OCTN2-expressing HeLa cells. In kind it is functional, cell-based. Also noted: scale not given: the % may be the effect or the level left. To be noted: HeLa cells that express OCTN2, probe TEA, read-out: Activity.

Data set [2] deals with T2, Organic cation/carnitine transporter 2 (Homo sapiens, UniProt O76082).
T2 sequence (O76082 whole entry): T1 sequence (O76082 whole entry)
Kind of data set: TP_TRANSPORTER: inhibition of TEA uptake (TEA: 20 uM, MPP+: 5000 uM) in OCTN2-expressing HeLa cells. Also noted: scale not given: the % may be the effect or the level left. In kind it is functional, cell-based.

Data set [3] deals with T2, Organic cation/carnitine transporter 2. The experiment in a line: TP_TRANSPORTER: inhibition of TEA uptake (TEA: 20 uM, Guanidine: 5000 uM) in OCTN2-expressing HeLa cells. In kind it is functional, cell-based.
The target of data set [4] is T1, OCTN2 (organic cation/carnitine transporter 2). Kind of data set: in vitro. To be noted: HeLa cells that express OCTN2, probe TEA, 20 uM.
Description: TP_TRANSPORTER: inhibition of TEA uptake (TEA: 20 uM, Nicotine: 5000 uM) in OCTN2-expressing HeLa cells
Data set [5] shares this target. Kind of data set: TP_TRANSPORTER: inhibition of TEA uptake (TEA: 20 uM, Methamphetamine: 5000 uM) in OCTN2-expressing HeLa cells. Also noted: scale not given: the % may be the effect or the level left. To be noted: HeLa cells that express OCTN2, probe TEA, read-out: Activity. Type of data set: functional, cell-based.
The target is the same in data set [6]. Kind of data set: in vitro. The following applies: HeLa cells that express OCTN2, probe TEA, 20 uM. The source holds these as a separate data set.
Description: TP_TRANSPORTER: inhibition of TEA uptake (TEA: 20 uM, Cimetidine: 5000 uM) in OCTN2-expressing HeLa cells
Data set [7] shares this target. Kind of data set: in vitro. The following applies: HeLa cells that express OCTN2, probe TEA, 20 uM. The source holds these as a separate data set.
Description: TP_TRANSPORTER: inhibition of TEA uptake (TEA: 20 uM, Choline: 5000 uM) in OCTN2-expressing HeLa cells
In data set [8] the target is T2, Organic cation/carnitine transporter 2. Kind of data set: TP_TRANSPORTER: inhibition of TEA uptake (TEA: 20 uM, Amphetamine: 5000 uM) in OCTN2-expressing HeLa cells. Type of data set: functional, cell-based.

Turning to `CCN(CC)CCNC(=O)c1ccc(N)cc1` [PROCAINAMIDE], in data set [1], the activity at 5000 µM is 39%.

`C[n+]1ccc(-c2ccccc2)cc1` gave an Activity in data set [2] of 39%. For the molecule `N=C(N)N` [GUANIDINE], in data set [3], the Activity entry is “is not an inhibitor [-]”.

In turn, `CN1CCC[C@H]1c1cccnc1` [NICOTINE] gave an activity at 5000 µM in data set [4] of 44%. `CN[C@@H](C)Cc1ccccc1` [METHAMPHETAMINE]: the activity at 5000 µM in data set [5] was found to be 66%. For `CN/C(=N/CCSCc1nc[nH]c1C)NC#N` [CIMETIDINE], in data set [6], the activity at 5000 µM was 39%. `C[N+](C)(C)CCO` [CHOLINE] had an activity at 5000 µM in data set [7] of 75%. `CC(N)Cc1ccccc1` (stereo not drawn) [AMPHETAMINE]: the Activity result in data set [8] was “is not an inhibitor [-]”.

The values above are taken from ChEMBL document CHEMBL2073822, “cDNA sequence, transport function, and genomic organization of human OCTN2, a new member of the organic cation transporter family” (Biochem Biophys Res Commun, 1998).
